Results on four molecules are retold here after patent publication US8748415B2 (priority 2011, dated 2014).

Some results are limits rather than exact numbers.

The assay relates to recombinant NL4-3 virus (Renilla luciferase in nef, Gag P373S). The experiment in a line: HIV cell culture assay (luciferase activity in MT-2 cells infected with NLRluc recombinant virus). It counts as cell-based. The settings on record: NL43, MT-2 cells infected 4-5 days with NLRluc recombinant virus. The method, boiled down: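 MT-2 cells in RPMI/10% FBS were infected with recombinant NL4-3 (NLRluc), produced by 293T transfection and titered in MT-2 by luciferase. Serial inhibitor dilutions were present throughout a 4–5 day infection. Antiviral activity was quantified as Renilla luciferase signal via a modified Dual Luciferase read.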

Regarding `C=C(C)[C@@H]1CC[C@]2(CNCCN3CCN(S(C)(=O)=O)CC3)CC[C@]3(C)[C@H](CC[C@@H]4[C@@]5(C)CC=C(c6ccc(C(=O)O)cc6)C(C)(C)[C@@H]5CC[C@]43C)[C@@H]12` [Example 179, 4-((1R,3aS,5aR,5bR,7aR,11aS,11bR,13aR,13bR)-5a,5b,8,8,11a-pentamethyl-3a-((2-(4-(methylsulfonyl)piperazin-1-yl)ethylamino)methyl)-1-(prop-1-en-2-yl)-2,3,3a,4,5,5a,5b,6,7,7a,8,11,11a,11b,12,13,13a,13b-octadecahydro-1H-cyclopenta[a]chrysen-9-yl)benzoic acid], the EC50 (in general, the concentration giving half of the maximal effect) (class symbol) is under 100 nM. With `C=C(C)[C@@H]1CC[C@]2(CNCCOC)CC[C@]3(C)[C@H](CC[C@@H]4[C@@]5(C)CC=C(c6ccc(C(=O)O)cc6)C(C)(C)[C@@H]5CC[C@]43C)[C@@H]12` [Example 180, 4-((1R,3aS,5aR,5bR,7aR,11aS,11bR,13aR,13bR)-3a-((2-methoxyethylamino)methyl)-5a,5b,8,8,11a-pentamethyl-1-(prop-1-en-2-yl)-2,3,3a,4,5,5a,5b,6,7,7a,8,11,11a,11b,12,13,13a,13b-octadecahydro-1H-cyclopenta[a]chrysen-9-yl)benzoic acid], the EC50 (class symbol) is under 100 nM.

For the molecule `C=C(C)[C@@H]1CC[C@]2(CNCCN3CCC(CO)CC3)CC[C@]3(C)[C@H](CC[C@@H]4[C@@]5(C)CC=C(c6ccc(C(=O)O)cc6)C(C)(C)[C@@H]5CC[C@]43C)[C@@H]12` [Example 181, 4-((1R,3aS,5aR,5bR,7aR,11aS,11bR,13aR,13bR)-3a-((2-(4-(hydroxymethyl)piperidin-1-yl)ethylamino)methyl)-5a,5b,8,8,11a-pentamethyl-1-(prop-1-en-2-yl)-2,3,3a,4,5,5a,5b,6,7,7a,8,11,11a,11b,12,13,13a,13b-octadecahydro-1H-cyclopenta[a]chrysen-9-yl)benzoic acid], the EC50 (numeric value) worked out at 1 nM.

Consider `C=C(C)[C@@H]1CC[C@]2(CN3CCOC3=O)CC[C@]3(C)[C@H](CC[C@@H]4[C@@]5(C)CC=C(c6ccc(C(=O)O)cc6)C(C)(C)[C@@H]5CC[C@]43C)[C@@H]12` [Example 182, 4-((1R,3aS,5aR,5bR,7aR,11aS,11bR,13aR,13bR)-5a,5b,8,8,11a-pentamethyl-3a-((2-oxooxazolidin-3-yl)methyl)-1-(prop-1-en-2-yl)-2,3,3a,4,5,5a,5b,6,7,7a,8,11,11a,11b,12,13,13a,13b-octadecahydro-1H-cyclopenta[a]chrysen-9-yl)benzoic acid], for which the half-maximal effective concentration (EC50) (class symbol) was under 100 nM.
